What all share (format): cell-based
Assay [1] concerns Escherichia coli EC-1: VOGEL, mouse virulent. The assay can be described thus: MIC determination (CLSI), strain EC-1. The following applies: Escherichia coli EC-1, VOGEL, mouse virulent; unit assumed. In outline: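 The mouse-virulent VOGEL isolate of E. coli, EC-1, served as test organism. Minimum inhibitory concentration was measured by CLSI dilution methodology (M7-A7; M100-S18 standards).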

For assay [2], the system named is Acinetobacter baumanii/haemolyticus: Multidrug-resistant clinical isolate (AB-3167). The assay can be described thus: MIC determination (CLSI), strain AB-3167. The note with it: unit assumed. In outline: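 MIC measured by broth dilution per CLSI guidelines (M7-A7, M100-S18) against multidrug-resistant clinical isolate AB-3167 of Acinetobacter baumanii/haemolyticus.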

The subject of assay [3] is Pseudomonas aeruginosa UI-18: Wild-type (PA-7). The assay can be described thus: MIC determination (CLSI), strain PA-7. The note with it: Pseudomonas aeruginosa UI-18, wild-type; unit assumed. An outline of the steps: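 MIC determined by broth dilution per CLSI M7-A7 guidelines with M100-S18 interpretive standards. Test organism: wild-type Pseudomonas aeruginosa UI-18, designated PA-7.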

Each structure is given as a SMILES string. A value given as a limit tells only on which side of the number the result lay.

`CCS(=O)(=O)C(C)(CCn1ccc(-c2ccccc2)cc1=O)C(=O)NO` (stereo not drawn) [Example 57, 2-(ethylsulfonyl)-N-hydroxy-2-methyl-4-(2-oxo-4-phenylpyridin-1(2H)-yl)butanamide] showed an EC-1 (MIC) in assay [1] of 8 µg/mL. The same compound returned an AB-3167 (MIC) in assay [2] of 16 µg/mL. In assay [3], this compound yielded a PA-7 (MIC) of 64 µg/mL.

Regarding `COc1cnn(-c2ccc(-c3ccn(CC[C@](C)(C(=O)NO)S(C)(=O)=O)c(=O)c3)cc2)n1` [Example 58, (2R)-N-hydroxy-4-{4-[4-(4-methoxy-2H-1,2,3-triazol-2-yl)phenyl]-2-oxopyridin-1(2H)-yl}-2-methyl-2-(methylsulfonyl)butanamide], in assay [1], the EC-1 (MIC) was found to be 0.03 µg/mL. This compound also showed an AB-3167 (MIC) in assay [2] of more than 64 µg/mL. The same compound displayed a PA-7 (MIC) in assay [3] of 0.5 µg/mL.

Consider `COc1ccc(COc2ccc(-c3ccn(CC[C@](C)(C(=O)NO)S(C)(=O)=O)c(=O)c3)cc2)cn1` [Example 59, (2R)-N-hydroxy-4-[4-{4-[(6-methoxypyridin-3-yl)methoxy]phenyl}-2-oxopyridin-1(2H)-yl]-2-methyl-2-(methylsulfonyl)butanamide], for which the EC-1 (MIC) in assay [1] amounted to 0.25 µg/mL. The compound further registered an AB-3167 (MIC) in assay [2] of more than 64 µg/mL. The PA-7 (MIC) in assay [3] is 1 µg/mL.

`C[C@@](CCn1ccc(-c2ccc(OC(F)(F)[C@H]3CC[C@H](O)CC3)cc2)cc1=O)(C(=O)NO)S(C)(=O)=O` [Example 60, (2R)-4-[4-{4-[difluoro(trans-4-hydroxycyclohexyl)methoxy]phenyl}-2-oxopyridin-1(2H)-yl]-N-hydroxy-2-methyl-2-(methylsulfonyl)butanamide]: in assay [1], the EC-1 (MIC) stood at 0.125 µg/mL. This compound also returned an AB-3167 (MIC) in assay [2] of 32 µg/mL. In assay [3], this compound showed a PA-7 (MIC) of 1 µg/mL.

The compound `C[C@@](CCn1ccc(-c2ccc(N3CCC(CO)CC3)cc2)cc1=O)(C(=O)NO)S(C)(=O)=O` [Example 61, (2R)-N-hydroxy-4-[4-{4-[4-(hydroxymethyl)piperidin-1-yl]phenyl}-2-oxopyridin-1(2H)-yl]-2-methyl-2-(methylsulfonyl)butanamide] returned an EC-1 (MIC) in assay [1] of 64 µg/mL. The compound also returned an AB-3167 (MIC) in assay [2] of more than 64 µg/mL. Besides, the PA-7 (MIC) in assay [3] is 2 µg/mL.

`CO/N=C(\C)c1ccc(-c2ccn(CCC(C)(C(=O)NO)S(C)(=O)=O)c(=O)c2)cc1` (stereo not drawn) [Example 62, N-Hydroxy-4-[4-{4-[(1E)-N-methoxyethanimidoyl]phenyl}-2-oxopyridin-1(2H)-yl]-2-methyl-2-(methylsulfonyl)butanamide]: the EC-1 (MIC) in assay [1] was 0.5 µg/mL. The compound further displayed an AB-3167 (MIC) in assay [2] of more than 64 µg/mL. In addition, in assay [3], the PA-7 (MIC) amounted to 4 µg/mL.

Turning to `Cc1cc(-c2ccn(CC[C@](C)(C(=O)NO)S(C)(=O)=O)c(=O)c2)ccc1-c1cc(CO)no1` [Example 63, N-Hydroxy-4-[4-{4-[3-(hydroxymethyl)isoxazol-5-yl]-3-methylphenyl}-2-oxopyridin-1(2H)-yl]-2-methyl-2-(methylsulfonyl)butanamide], the EC-1 (MIC) in assay [1] is 2 µg/mL. Also, the AB-3167 (MIC) in assay [2] was more than 64 µg/mL. Further, the PA-7 (MIC) in assay [3] was 4 µg/mL.

The compound `C[C@@](CCn1ccc(N2CC(c3ccccc3)C2)cc1=O)(C(=O)NO)S(C)(=O)=O` [Example 64, (2R)-N-Hydroxy-2-methyl-2-(methylsulfonyl)-4-[2-oxo-4-(3-phenylazetidin-1-yl)pyridin-1(2H)-yl]butanamide] gave an EC-1 (MIC) in assay [1] of 8 µg/mL. In assay [2], this compound displayed an AB-3167 (MIC) of more than 64 µg/mL. Also, in assay [3], the PA-7 (MIC) stood at 8 µg/mL.

For `C[C@@](CCn1ccc(C#Cc2ccccc2)cc1=O)(C(=O)NO)S(C)(=O)=O` [Example 65, (2R)-N-Hydroxy-2-methyl-2-(methylsulfonyl)-4-[2-oxo-4-(phenylethynyl)pyridin-1(2H)-yl]butanamide], the EC-1 (MIC) in assay [1] was 0.125 µg/mL. The AB-3167 (MIC) in assay [2] was determined as 64 µg/mL. This compound displayed a PA-7 (MIC) in assay [3] of 0.5 µg/mL.

The compound `CC(CCn1ccc(OCCCC2CCCCC2)cc1=O)(C(=O)NO)S(C)(=O)=O` (stereo not drawn) [Example 66, 4-[4-(3-Cyclohexylpropoxy)-2-oxopyridin-1(2H)-yl]-N-hydroxy-2-methyl-2-(methylsulfonyl)butanamide] gave an EC-1 (MIC) in assay [1] of 1 µg/mL. The compound further yielded an AB-3167 (MIC) in assay [2] of 2 µg/mL. Besides, in assay [3], the PA-7 (MIC) came out at 8 µg/mL.

For the compound `C[C@@](CCn1ccc(C2=CCN(c3ncccn3)CC2)cc1=O)(C(=O)NO)S(C)(=O)=O` [Example 67, (2R)-N-Hydroxy-2-methyl-2-(methylsulfonyl)-4-(2-oxo-1′-pyrimidin-2-yl-1′,2′,3′,6′-tetrahydro-4,4′-bipyridin-1(2H)-yl)butanamide], the EC-1 (MIC) in assay [1] was found to be 8 µg/mL. The compound also returned an AB-3167 (MIC) in assay [2] of more than 64 µg/mL. In assay [3], this compound registered a PA-7 (MIC) of 8 µg/mL.

`C[C@@](CCn1ccc(-c2ccc3ccccc3c2)cc1=O)(C(=O)NO)S(C)(=O)=O` [Example 68-A, (2R)-N-hydroxy-2-methyl-2-(methylsulfonyl)-4-[4-(2-naphthyl)-2-oxopyridin-1(2H)-yl]butanamide] had an EC-1 (MIC) in assay [1] of 0.06 µg/mL. In assay [2], the AB-3167 (MIC) is more than 64 µg/mL. Also, the PA-7 (MIC) in assay [3] was found to be 0.5 µg/mL.

The compound `C[C@@](CCn1ccc(-c2ccc(Cl)c(F)c2)cc1=O)(C(=O)NO)S(C)(=O)=O` [Example 68-B, (2R)-4-[4-(4-chloro-3-fluorophenyl)-2-oxopyridin-1(2H)-yl]-N-hydroxy-2-methyl-2-(methylsulfonyl)butanamide] had an EC-1 (MIC) in assay [1] of 0.5 µg/mL. The compound further had an AB-3167 (MIC) in assay [2] of more than 64 µg/mL. In assay [3], this compound had a PA-7 (MIC) of 0.5 µg/mL.

The compound `C[C@@](CCn1ccc(-c2ccc(Cl)c(Cl)c2)cc1=O)(C(=O)NO)S(C)(=O)=O` [Example 68-C, (2R)-4-[4-(3,4-dichlorophenyl)-2-oxopyridin-1(2H)-yl]-N-hydroxy-2-methyl-2-(methylsulfonyl)butanamide] showed an EC-1 (MIC) in assay [1] of 0.125 µg/mL. The AB-3167 (MIC) in assay [2] was more than 64 µg/mL. This compound showed a PA-7 (MIC) in assay [3] of 0.5 µg/mL.

`C[C@@](CCn1ccc(-c2ccc(-c3nccs3)cc2)cc1=O)(C(=O)NO)S(C)(=O)=O` [Example 68-D, (2R)-N-hydroxy-2-methyl-2-(methylsulfonyl)-4-{2-oxo-4-[4-(1,3-thiazol-2-yl)phenyl]pyridin-1(2H)-yl}butanamide]: the EC-1 (MIC) in assay [1] worked out at 0.06 µg/mL. For the same compound, the AB-3167 (MIC) in assay [2] was more than 64 µg/mL. In assay [3], this compound yielded a PA-7 (MIC) of 0.5 µg/mL.

Turning to `Cc1cccc(-c2ccn(CC[C@](C)(C(=O)NO)S(C)(=O)=O)c(=O)c2)c1Cl` [Example 68-E, (2R)-4-[4-(2-chloro-3-methylphenyl)-2-oxopyridin-1(2H)-yl]-N-hydroxy-2-methyl-2-(methylsulfonyl)butanamide], in assay [1], the EC-1 (MIC) was found to be 0.25 µg/mL. In assay [2], this compound gave an AB-3167 (MIC) of 64 µg/mL. In assay [3], this compound returned a PA-7 (MIC) of 0.5 µg/mL.

For the compound `C[C@@](CCn1ccc(-c2ccc(-c3ccon3)cc2)cc1=O)(C(=O)NO)S(C)(=O)=O` [Example 68-F, (2R)-N-hydroxy-4-[4-(4-isoxazol-3-ylphenyl)-2-oxopyridin-1(2H)-yl]-2-methyl-2-(methylsulfonyl)butanamide], in assay [1], the EC-1 (MIC) amounted to 0.25 µg/mL. In assay [2], the AB-3167 (MIC) was more than 64 µg/mL. Besides, the PA-7 (MIC) in assay [3] amounted to 0.5 µg/mL.

`CCC(=O)c1ccc(-c2ccn(CC[C@](C)(C(=O)NO)S(C)(=O)=O)c(=O)c2)cc1` [Example 68-G, (2R)-N-hydroxy-2-methyl-2-(methylsulfonyl)-4-[2-oxo-4-(4-propionylphenyl)pyridin-1(2H)-yl]butanamide] displayed an EC-1 (MIC) in assay [1] of 0.5 µg/mL. In addition, in assay [2], the AB-3167 (MIC) was more than 64 µg/mL. The compound further registered a PA-7 (MIC) in assay [3] of 1 µg/mL.

As to `C[C@@](CCn1ccc(-c2ccc([C@H]3C[C@@](C)(O)C3)cc2)cc1=O)(C(=O)NO)S(C)(=O)=O` [Example 68-H, (2R)-N-hydroxy-4-{4-[4-(cis-3-hydroxy-3-methylcyclobutyl)phenyl]-2-oxopyridin-1(2H)-yl}-2-methyl-2-(methylsulfonyl)butanamide], the EC-1 (MIC) in assay [1] came out at 2 µg/mL. In assay [2], this compound showed an AB-3167 (MIC) of more than 64 µg/mL. In assay [3], this compound had a PA-7 (MIC) of 1 µg/mL.

Consider `C[C@@](CCn1ccc(-c2ccc(C(F)(F)F)cc2)cc1=O)(C(=O)NO)S(C)(=O)=O` [Example 68-I, (2R)-N-hydroxy-2-methyl-2-(methylsulfonyl)-4-{2-oxo-4-[4-(trifluoromethyl)phenyl]pyridin-1(2H)-yl}butanamide], for which the EC-1 (MIC) in assay [1] is 1 µg/mL. Moreover, the AB-3167 (MIC) in assay [2] is more than 64 µg/mL. The PA-7 (MIC) in assay [3] was 1 µg/mL.

As for `Cc1c(-c2ccc(-n3nccn3)cc2)ccn(CC[C@](C)(C(=O)NO)S(C)(=O)=O)c1=O` [Example 68-J, (2R)-N-hydroxy-2-methyl-4-{3-methyl-2-oxo-4-[4-(2H-1,2,3-triazol-2-yl)phenyl]pyridin-1(2H)-yl}-2-(methylsulfonyl)butanamide], the EC-1 (MIC) in assay [1] worked out at 0.125 µg/mL. The AB-3167 (MIC) in assay [2] is more than 64 µg/mL. Besides, the PA-7 (MIC) in assay [3] amounted to 1 µg/mL.

Take `C[C@@](CCn1ccc(C2=CCCCC2)cc1=O)(C(=O)NO)S(C)(=O)=O` [Example 68-K, (2R)-4-(4-cyclohex-1-en-1-yl-2-oxopyridin-1(2H)-yl)-N-hydroxy-2-methyl-2-(methylsulfonyl)butanamide]: the EC-1 (MIC) in assay [1] was 4 µg/mL. The AB-3167 (MIC) in assay [2] was more than 64 µg/mL. The compound also came in with a PA-7 (MIC) in assay [3] of 1 µg/mL.

In turn, `C[C@@](CCn1ccc(C2=CCCCCC2)cc1=O)(C(=O)NO)S(C)(=O)=O` [Example 68-L, (2R)-4-(4-cyclohept-1-en-1-yl-2-oxopyridin-1(2H)-yl)-N-hydroxy-2-methyl-2-(methylsulfonyl)butanamide] showed an EC-1 (MIC) in assay [1] of 2 µg/mL. The AB-3167 (MIC) in assay [2] is more than 64 µg/mL. Besides, the PA-7 (MIC) in assay [3] came to 1 µg/mL.

Turning to `C[C@@](CCn1ccc(-c2ccc(CC3CC(O)C3)cc2)cc1=O)(C(=O)NO)S(C)(=O)=O` (stereo partly drawn) [Example 68-M, (2R)-N-hydroxy-4-[4-{4-[(3-hydroxycyclobutyl)methyl]phenyl}-2-oxopyridin-1(2H)-yl]-2-methyl-2-(methylsulfonyl)butanamide], in assay [1], the EC-1 (MIC) worked out at 0.5 µg/mL. Also, in assay [2], the AB-3167 (MIC) was more than 64 µg/mL. Also, the PA-7 (MIC) in assay [3] came out at 2 µg/mL.

The record behind these values is patent publication US8846933B2, “N-link hydroxamic acid derivatives useful as antibacterial agents” (Pfizer Inc., priority 2009, dated 2014).
